ChEMBL document CHEMBL5126658, “Talaropeptins A and B, Tripeptides with an N-trans-Cinnamoyl Moiety from the Marine-Derived Fungus Talaromyces purpureogenus CX11” (2022)
Values after ≈ are worked out from the molar mass of the structure shown.

How the values were obtained:
Type in all cases: functional
Fusarium oxysporum = test: Antifungal activity against Fusarium oxysporum ATCC 28856 assessed as fungal growth inhibition incubated for 24 hrs by serial dilution method
Candida albicans = test: Antifungal activity against Candida albicans SC5314 assessed as fungal growth inhibition incubated for 24 hrs by serial dilution method
Cryptococcus neoformans = test: Antifungal activity against Cryptococcus neoformans GOYJ11988 assessed as fungal growth inhibition incubated for 24 hrs by serial dilution method

Structure (SMILES)	MIC (Fusarium oxysporum) [µg/mL]	MIC (Candida albicans) [µg/mL]	MIC (Cryptococcus neoformans) [µg/mL]
C[C@@H]1C(=O)N2CCC[C@H]2[C@]2(O)O[C@@](CO)(NC(=O)/C=C/c3ccccc3)C(=O)N12	12.5 (≈ 31.1 µM)	40 (≈ 99.6 µM)	80 (≈ 199 µM)
C[C@@H]1C(=O)N2CCC[C@H]2[C@]2(O)O[C@@](C)(NC(=O)/C=C/c3ccccc3)C(=O)N12	25 (≈ 64.9 µM)	40 (≈ 104 µM)	80 (≈ 208 µM)
